This note sets out measurements from article PMC10810742 (The Journal of Biological Chemistry, 2023).

In the experiment the target is T1, CteC36–276 (Chromobacterium violaceum, UniProt Q7NY09).
T1 construct: gene cteC; residues 36-276 (disordered N-terminal 1-35 removed); SeMet form for the crystal
The experiment in a line: isothermal titration calorimetry. It is filed as binding.

pKd: −log10 of the molar value.

T1 sequence (Q7NY09 36-276): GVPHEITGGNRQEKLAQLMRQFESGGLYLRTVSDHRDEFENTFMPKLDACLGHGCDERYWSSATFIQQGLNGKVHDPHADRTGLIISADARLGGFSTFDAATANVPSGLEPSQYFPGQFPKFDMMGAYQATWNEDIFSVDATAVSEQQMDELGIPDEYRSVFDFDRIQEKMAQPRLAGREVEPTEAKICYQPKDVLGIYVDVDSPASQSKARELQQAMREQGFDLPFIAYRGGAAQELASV

Regarding `NC(=O)c1ccc[n+]([C@@H]2O[C@H](COP(=O)(O)OP(=O)(O)OC[C@H]3O[C@@H](n4cnc5c(N)ncnc54)[C@H](O)[C@@H]3O)[C@@H](O)[C@H]2O)c1` [NAD^+], the pKd (as a rule, the negative decadic logarithm of the Kd, by convention in mol/L) is 3.91.
